Read-outs that look alike come from different tables or passages of the source.
Target: T1, human Kv4.3/KChIP2.2 potassium channel (Homo sapiens, UniProt Q9UK17)
T1 construct: expressed in transfected cells
T1 sequence (Q9UK17 1-655): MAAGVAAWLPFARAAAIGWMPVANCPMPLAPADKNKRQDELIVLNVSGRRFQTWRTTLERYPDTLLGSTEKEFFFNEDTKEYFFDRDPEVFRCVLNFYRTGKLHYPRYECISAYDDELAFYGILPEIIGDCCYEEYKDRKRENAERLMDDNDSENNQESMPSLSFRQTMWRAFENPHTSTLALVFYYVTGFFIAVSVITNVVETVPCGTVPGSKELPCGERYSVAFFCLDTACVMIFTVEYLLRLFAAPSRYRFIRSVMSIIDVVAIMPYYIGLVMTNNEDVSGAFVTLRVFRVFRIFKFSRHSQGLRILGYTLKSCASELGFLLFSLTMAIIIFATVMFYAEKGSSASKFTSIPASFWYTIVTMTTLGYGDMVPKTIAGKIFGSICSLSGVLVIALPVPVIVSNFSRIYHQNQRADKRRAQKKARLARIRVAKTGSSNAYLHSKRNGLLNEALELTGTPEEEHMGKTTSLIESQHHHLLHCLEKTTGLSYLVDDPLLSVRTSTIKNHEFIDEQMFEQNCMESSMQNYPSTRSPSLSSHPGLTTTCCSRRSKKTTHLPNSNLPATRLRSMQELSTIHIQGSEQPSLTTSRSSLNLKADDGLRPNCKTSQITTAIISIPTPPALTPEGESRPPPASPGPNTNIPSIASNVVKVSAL
Test: Whole cell patch clamp, CHO-K1 cells stably expressing human Kv4.3/KChIP2.2
Assay type: cell-based
Conditions: for remaining activity at 1 µM: CHO-K1

[1] = estimated by Hill fit with hill=1, ymax=100, tested at 2 μM, n=2, read-out: IC50 (μM) Kv4.3
[2] = remaining current measured after application of the compound and relative to the blank, read-out: Kv4.3 charge in %
[3] = remaining peak height measured after application of the compound and relative to the blank, read-out: Kv4.3 peak in %
[4] = Kv4.3 mediated current, charge, patch clamp, read-out: Kv4.3 charge IC50

Compound	IC50 [1] [µM]	remaining activity at 1 µM [2] [%]	remaining activity at 1 µM [3] [%]	IC50 [4] [µM]
COc1ccccc1Nc1nc(C)c(C(=O)N[C@@H]2CCC[C@H]2OCc2ccccc2)s1 [Compound 31, 2-(2-methoxy-phenylamino)-4-methyl-thiazole-5-carboxylic acid (1R,2R)-2-(benzyloxycyclopent-1-yl) amide]	2.91	–	–	–
COc1ccccc1Nc1nc(C)c(C(=O)NCc2ccc(C(C)(C)C)cc2)s1 [Compound 106, 2-(2-methoxy-phenylamino)-4-methyl-thiazole-5-carboxylic acid 4-tert-butyl-benzylamide]	–	58	98	–
COc1ccccc1Nc1ccc(C(=O)N[C@H]2CCC[C@@H]2OCc2ccccc2)s1 [Compound 75, 2-(2-methoxy-phenylamino)-thiophene-5-carboxylic acid ((1S,2S)-2-benzyloxycyclopent-1-yl) amide]	–	41	81	–
Cc1nc(Nc2cccc3cccnc23)sc1C(=O)N[C@H]1CCC[C@@H]1OCc1ccccc1 [Compound 94, 4-methyl-2-(quinolin-8-ylamino)-thiazole-5-carboxylic acid ((1S,2S)-2-benzyloxycyclopent-1-yl) amide]	–	49	89	–
COc1cccc([C@@H](C)NC(=O)c2sc(Nc3cc(Cl)ccc3OC)nc2C)c1 [Compound 34]	1.62	–	–	–
COc1ccccc1Nc1nc(C)c(C(=O)N[C@H]2CCC[C@@H]2OCc2ccccc2)s1 [Compound 68, 2-(2-methoxy-phenylamino)-4-methyl-thiazole-5-carboxylic acid (1S,2S)-2-(benzyloxycyclopent-1-yl) amide]	0.54	–	–	–
COc1ccccc1Nc1nc(C)c(C(=O)NCc2ccc(N(C)C)cc2)s1 [Compound 105, 2-(2-methoxy-phenylamino)-4-methyl-thiazole-5-carboxylic acid 4-dimethylamino-benzylamide]	–	61	77	–
Cc1nc(Nc2ccc(F)cc2)sc1C(=O)N[C@H](C)c1ccc2ccccc2c1 [Compound 16, 2-(4-fluoro-phenylamino)-4-methyl-thiazole-5-carboxylic acid (R)-1-(naphthalen-2-yl)ethyl amide]	1.84	–	–	–
2-(4-bromo-phenylamino)-4-methyl-thiazole-5-carboxylic acid 1,2,3,4-tetrahydroisoquinolinamide [Compound 66]	0.34	–	–	0.34
Cc1nc(Nc2ccc(Br)cc2)sc1C(=O)N[C@@H](C)c1ccc2ccccc2c1 [Compound 18, 2-(4-bromo-phenylamino)-4-methyl-thiazole-5-carboxylic acid (S)-1-(naphthalen-2-yl)ethyl amide]	3.85	–	–	–
Cc1nc(Nc2ccc(Cl)cc2)sc1C(=O)N[C@H](C)c1ccc2ccccc2c1 [Compound 52, 2-(4-chloro-phenylamino)-4-methyl-thiazole-5-carboxylic acid (R)-1-(2-naphtalen-2-yl-ethyl)-amide]	0.34	–	–	0.34
COc1ccccc1Nc1nc(C)c(C(=O)NCc2ccc(Br)cc2)s1 [Compound 108, 2-(2-methoxy-phenylamino)-4-methyl-thiazole-5-carboxylic acid 4-bromo-benzylamide]	–	59	82	–
Cc1nc(Nc2ccc3c(c2)OCCO3)sc1C(=O)N[C@H]1CCC[C@@H]1OCc1ccccc1 [Compound 95]	–	61	91	–
Cc1nc(Sc2ccccc2)sc1C(=O)N[C@H]1CCC[C@@H]1OCc1ccccc1 [Compound 81, 4-methyl-2-phenylsulfanyl-thiazole-5-carboxylic acid ((1S,2S)-2-benzyloxycyclopent-1-yl) amide]	–	51	90	–
Cc1nc(Nc2ccc(Cl)cc2)sc1C(=O)N[C@@H](C)c1ccc2ccccc2c1 [Compound 54, 2-(4-chloro-phenylamino)-4-methyl-thiazole-5-carboxylic acid (S)-1-(2-naphtalen-2-yl-ethyl)-amide]	2.41	–	–	2.41
COc1ccccc1Nc1nc(C)c(C(=O)NCc2c(C)cccc2Cl)s1 [Compound 98, 2-(2-methoxy-phenylamino)-4-methyl-thiazole-5-carboxylic acid 2-chloro-6-methyl-benzylamide]	–	59	90	–

Compound	IC50 [1] [µM]	remaining activity at 1 µM [2] [%]	remaining activity at 1 µM [3] [%]	IC50 [4] [µM]
COc1ccc(OC)c(Nc2nc(C)c(C(=O)N[C@@H]3CCC[C@H]3OCc3ccccc3)s2)c1 [Compound 33, 2-(2,5-dimethoxyphenylamino)-4-methylthiazole-5-carboxylic acid (1R,2R)-2-(benzyloxycyclopent-1-yl) amide]	3.35	–	–	–
Cc1nc(NC(=O)c2ccc(C(C)(C)C)cc2)sc1C(=O)N[C@H]1CCC[C@@H]1OCc1ccccc1 [Compound 180, 2-(4-tert-butyl-benzoylamino)-4-methyl-thiazole-5-carboxylic acid ((1S,2S)-2-benzyloxycyclopent-1-yl) amide]	–	73	97	–
COc1cc(CNC(=O)c2sc(Nc3ccc(Br)cc3)nc2C)cc(OC)c1 [Compound 65, 2-(4-bromo-phenylamino)-4-methyl-thiazole-5-carboxylic acid 3,5-dimethoxy-benzylamide]	0.18	–	–	–
Cc1nc(Nc2ccc(Br)cc2)sc1C(=O)NCc1cccc2ccccc12 [Compound 56, 2-(4-bromo-phenylamino)-4-methyl-thiazole-5-carboxylic acid (naphtalen-1-yl-methyl)-amide]	1.07	–	–	1.07
COc1ccccc1Nc1nc(C)c(C(=O)N[C@@H](C)c2ccc3ccccc3c2)s1 [Compound 55, 2-(2-methoxy-phenylamino)-4-methyl-thiazole-5-carboxylic acid (S)-1-(2-naphtalen-2-yl-ethyl)-amide]	2.02	–	–	–
Cc1nc(Nc2ccc(Cl)cc2)sc1C(=O)N[C@@H]1CCC[C@H]1OCc1ccccc1 [Compound 30, 2-(4-chloro-phenylamino)-4-methyl-thiazole-5-carboxylic acid (1R,2R)-2-(benzyloxycyclopent-1-yl) amide]	1.25	–	–	1.25
COc1ccc(CNC(=O)c2sc(Nc3ccc(Br)cc3)nc2C)cc1 [Compound 60, 2-(4-bromo-phenylamino)-4-methyl-thiazole-5-carboxylic acid 4-methoxy-benzylamide]	0.39	–	–	–
COc1ccccc1Nc1nc(C)c(C(=O)NCc2ccc3c(c2)CCO3)s1 [Compound 104, 2-(2-methoxy-phenylamino)-4-methyl-thiazole-5-carboxylic acid (2,3-dihydro-benzofuran-5-ylmethyl)-amide]	–	77	93	–
Cc1nc(Nc2ccc3occc3c2)sc1C(=O)N[C@H]1CCC[C@@H]1OCc1ccccc1 [Compound 126, 2-(benzofuran-5-ylamino)-4-methyl-thiazole-5-carboxylic acid ((1S,2S)-2-benzyloxycyclopent-1-yl) amide]	–	58	89	–
Cc1nc(Nc2ccc(Br)cc2)sc1C(=O)NCc1ccc(F)c(C(F)(F)F)c1 [Compound 63, 2-(4-bromo-phenylamino)-4-methyl-thiazole-5-carboxylic acid 4-fluoro-3-trifluoromethyl-benzylamide]	0.16	–	–	–
COc1ccccc1Nc1nc(C)c(C(=O)NCc2ccccc2SC)s1 [Compound 97]	–	66	96	–
Cc1nc(Nc2ccc(Br)cc2)sc1C(=O)N[C@H](C)c1ccc2ccccc2c1 [Compound 19, 2-(4-bromo-phenylamino)-4-methyl-thiazole-5-carboxylic acid (R)-1-(naphthalen-2-yl)ethyl amide]	2.72	–	–	–
COc1ccccc1Nc1nccc(C(=O)N[C@H]2CCC[C@@H]2OCc2ccccc2)n1 [Compound 76, 2-(2-methoxy-phenylamino)-pyrimidine-4-carboxylic acid ((1S,2S)-2-benzyloxycyclopent-1-yl) amide]	–	62	99	–
Cc1nc(Nc2cccc3ccccc23)sc1C(=O)N[C@H]1CCC[C@@H]1OCc1ccccc1 [Compound 93]	–	62	89	–
Cc1nc(Nc2ccc(Br)cc2)sc1C(=O)NCc1ccc(N(C)C)cc1 [Compound 64, 2-(4-bromo-phenylamino)-4-methyl-thiazole-5-carboxylic acid 4-dimethylamino-benzylamide]	0.83	–	–	–
